According to US9981968B2, “Substituted pyrrolo[2,3-d]pyrimidines for the treatment of cancer and proliferative disorders” (Northwestern University, priority 2013, dated 2018):

Tests used:
Assay type in all cases: cell-based
[1] = system: SF-268; experiment: SRB growth assay, SF-268; conditions: Homo sapiens, SF-268 (CNS), 48 hours, read-out: Percent viability
From the text: (§1) Tested cell lines included, Leukemia: CCRF-CEM, HL-60(TB), MOLT-4, RPMI-8226 and SR; Non-Small Cell Lung: A549/ATCC, EKVX, HOP-62, HOP-92, NCI-H226, NCI-H23, NCI-H322M, NCI-H460 and NCI-H522; Colon: COLO 205, HCC-2998, HCT-116, HCT-15. HT29, KM12 and SW-620; CNS: SF-268, SF-295, SF-539, SNB-19, SNB-75 and U251; Melanoma: LOX IMVI, MALME-3M, M14, MDA-MB-435, SK-MEL-2, SK-MEL-28, SK-MEL-5, UACC-257 and UACC-62; Ovarian: IGR-OV1, OVCAR-3, OVCAR-4, OVCAR-5, OVCAR-8. NCI/ADR-RES and SK-OV-3; Renal: 786-0, A498, ACHN, CAKI-1, RXF 393, SN12C, TK-10 and UO-31; Prostate: DU-145 and PC-3; and Breast: MCF7, MDA-MB-231/ATCC, MDA-MB-468, HS 578T, BT-549 and T-47D.
(§2) The cells were cultured in RPMI1640 media supplemented with 10% Fetal Bovine Serum (FBS), 2 mM glutamine and with 5% CO2 and 37° C. For experiment, 5% of FBS and 50 ug/mL of gentamycin were used. Test articles were 10 μM of NUCL 381-3 or 10 μM NUCL 383-3. The positive control was 10 μM of doxorubicin.
(§3) Cells were plated in 96 well plates. The cells were plated in triplicate. Cells were plated at the densities based on NCI recommendation. Time zero cells (Tz) were fixed the following day with 50% or 80% ice cold Trichloracetic acid (TCA) and washed 5× with water. At 48 hours post addition of treatments, all remaining plates were fixed in 80% ice cold Trichloracetic acid (TCA) and washed 5× with water. After drying, one hundred microliters of 0.4% Sulphorhodamine B (SRB) in 1% acetic acid was added to each plate including the Tzero plate and incubated for 10 minutes at room temperature. After 5 additional washes with 1% acetic acid, plates were allowed to dry. One hundred microliters of Trizma base was added to each well and plates were read at 515 nm.
(§4) Percent of growth was calculated by the following formulas: [Ti/C]×100, where: Tz=absorbance readings for wells at time zero without treatment; C=absorbance readings of untreated cells (without treatment); and Ti=absorbance reading of wells with treatment.

[2] = system: ACHN; experiment: SRB growth assay, ACHN; conditions: Homo sapiens, ACHN (Renal), 48 hours, read-out: Percent viability
From the text: as §1, §2, §3, §4

[3] = system: KM12; experiment: SRB growth assay, KM12; conditions: Homo sapiens, KM12 (Colon), 48 hours, read-out: Percent viability
From the text: as §1, §2, §3, §4

[4] = system: MOLT-4; experiment: SRB growth assay, MOLT-4; conditions: Homo sapiens, MOLT-4 (Leukemia), 48 hours, read-out: Percent viability
From the text: as §1, §2, §3, §4

[5] = system: K-562; experiment: SRB growth assay, K-562; conditions: Homo sapiens, K562, K-562 (Leukemia), 48 hours, read-out: Percent viability
From the text: as §1, §2, §3, §4

[6] = system: SF-295; experiment: SRB growth assay, SF-295; conditions: Homo sapiens, SF-295 (CNS), 48 hours, read-out: Percent viability
From the text: as §1, §2, §3, §4

[7] = system: MDA-MB-231; experiment: SRB growth assay, MDA-MB-231; conditions: Homo sapiens, MDA-MB-231 (Breast), 48 hours, read-out: Percent viability
From the text: as §1, §2, §3, §4

[8] = system: SW-620; experiment: SRB growth assay, SW-620; conditions: Homo sapiens, SW-620 (Colon), 48 hours, read-out: Percent viability
From the text: as §1, §2, §3, §4

[9] = system: T-47D; experiment: SRB growth assay, T-47D; conditions: Homo sapiens, T47D, T-47D (Breast), 48 hours, read-out: Percent viability
From the text: as §1, §2, §3, §4

[10] = system: CCRF-CEM; experiment: SRB growth assay, CCRF-CEM; conditions: Homo sapiens, CCRF-CEM (Leukemia), 48 hours, read-out: Percent viability
From the text: as §1, §2, §3, §4

[11] = system: SK-MEL-2; experiment: SRB growth assay, SK-MEL-2; conditions: Homo sapiens, SK-MEL-2 (Melanoma), 48 hours, read-out: Percent viability
From the text: as §1, §2, §3, §4

[12] = system: 786-0; experiment: SRB growth assay, 786-0; conditions: Homo sapiens, 786-0 (Renal), 48 hours, read-out: Percent viability
From the text: as §1, §2, §3, §4

[13] = system: EKVX; experiment: SRB growth assay, EKVX; conditions: Homo sapiens, EKVX (Non-Small Cell Lung), 48 hours, read-out: Percent viability
From the text: as §1, §2, §3, §4

[14] = system: MM1S; experiment: SRB growth assay, MM1S; conditions: Homo sapiens, MM1.S, MM1S (Multiple Myeloma), 48 hours, read-out: Percent viability
[15] = system: UACC-62; experiment: SRB growth assay, UACC-62; conditions: Homo sapiens, UACC-62 (Melanoma), 48 hours, read-out: Percent viability
From the text: as §1, §2, §3, §4

[16] = system: RPMI-8226; experiment: SRB growth assay, RPMI-8226; conditions: Homo sapiens, RPMI-8226 (Leukemia), 48 hours, read-out: Percent viability
From the text: as §1, §2, §3, §4

[17] = system: HOP-62; experiment: SRB growth assay, HOP-62; conditions: Homo sapiens, HOP-62 (Non-Small Cell Lung), 48 hours, read-out: Percent viability
From the text: as §1, §2, §3, §4

[18] = system: HCT-15; experiment: SRB growth assay, HCT-15; conditions: Homo sapiens, HCT-15 (Colon), 48 hours, read-out: Percent viability
From the text: as §1, §2, §3, §4

[19] = system: OVCAR-5; experiment: SRB growth assay, OVCAR-5; conditions: Homo sapiens, OVCAR-5 (Ovarian), 48 hours, read-out: Percent viability
From the text: as §1, §2, §3, §4

[20] = system: SK-OV-3; experiment: SRB growth assay, SK-OV-3; conditions: Homo sapiens, SK-OV-3 (Ovarian), 48 hours, read-out: Percent viability
From the text: as §1, §2, §3, §4

[21] = system: OVCAR-8; experiment: SRB growth assay, OVCAR-8; conditions: Homo sapiens, OVCAR-8 (Ovarian), 48 hours, read-out: Percent viability
From the text: as §1, §2, §3, §4

[22] = system: MALME-3M; experiment: SRB growth assay, MALME-3M; conditions: Homo sapiens, MALME-3M (Melanoma), 48 hours, read-out: Percent viability
From the text: as §1, §2, §3, §4

[23] = system: NCI-H226; experiment: SRB growth assay, NCI-H226; conditions: Homo sapiens, NCI-H226 (Non-Small Cell Lung), 48 hours, read-out: Percent viability
From the text: as §1, §2, §3, §4

SMILES | viability at 10 µM [1] [%] | viability at 10 µM [2] [%] | viability at 10 µM [3] [%] | viability at 10 µM [4] [%] | viability at 10 µM [5] [%] | viability at 10 µM [6] [%] | viability at 10 µM [7] [%] | viability at 10 µM [8] [%] | viability at 10 µM [9] [%] | viability at 10 µM [10] [%] | viability at 10 µM [11] [%] | viability at 10 µM [12] [%] | viability at 10 µM [13] [%] | viability at 10 µM [14] [%] | viability at 10 µM [15] [%] | viability at 10 µM [16] [%] | viability at 10 µM [17] [%] | viability at 10 µM [18] [%] | viability at 10 µM [19] [%] | viability at 10 µM [20] [%] | also measured
CS(=O)(=O)N1CCC(Cn2cc(C(F)(F)F)c3c(Cl)ncnc32)CC1 [NUCC-0000383] | 1.77 | 77.8 | 99.5 | 17.9 | 10.2 | 56.2 | 33.9 | 25.7 | 63.3 | 54 | 14.7 | 69.5 | 84.6 | 58.2 | 8.26 | 100 | 88.5 | 38.8 | 104 | 74.2 | viability at 10 µM [21]: 73.9%; viability at 10 µM [22]: 42.7%; viability at 10 µM [23]: 29.5%
FC(F)(F)c1cn(CC2CCNCC2)c2ncnc(Cl)c12 [NUCC-0000381] | 3.37 | 23.3 | 31 | 75.5 | 8.38 | 44.4 | 48.5 | 27.2 | 60.8 | 52.8 | 106 | 94.2 | 57.5 | 52.3 | 46.3 | 100 | 15.7 | 40.4 | 76.8 | 56.5 | viability at 10 µM [21]: 31.7%; viability at 10 µM [22]: 101%; viability at 10 µM [23]: 54.9%
COc1cccc2c1C(=O)c1c(O)c3c(c(O)c1C2=O)C[C@@](O)(C(=O)CO)C[C@@H]3O[C@H]1C[C@H](N)[C@H](O)[C@H](C)O1 [Doxorubicin, reference compound] | 6.91 | 40.2 | 71.8 | 30.4 | 17.1 | 11.2 | 41.8 | 19 | 37.5 | 43.6 | 11.6 | 17.6 | 35.5 | 26.4 | 4.85 | 44.2 | 19.7 | 31.1 | 57.1 | 47.8 | viability at 10 µM [21]: 15%; viability at 10 µM [22]: 15.8%; viability at 10 µM [23]: 34.2%
